Measurements taken from US11453640B2, “Small molecules for disrupting the super elongation complex and inhibiting transcription elongation for cancer therapy” (NORTHWESTERN UNIVERSITY, priority 2018, dated 2022).

System: Pol II
Assay: Pol II ChIP-seq, promoter-proximal pausing in HEK293T cells
Format: cell-based, human
Experimental: FIG. 2. Small molecule disruption of SEC increases promoter-proximal pausing. (A) SEC inhibitors increase Pol II occupancy near the transcription start sites (TSS) of the HSPA8 and SRSF4 genes. Pol II ChIP-seq was performed in HEK293T cells with 20 μM SEC inhibitors KL-1 and KL-2 for 6 hr. […] (B) Heatmap analysis of Pol II occupancy at SEC-occupied genes in cells treated with KL-1 and KL-2. SEC inhibition results in increased Pol II occupancy at promoter-proximal regions of genes occupied by SEC. Rows are sorted by Pol II occupancy in the DMSO condition and metaplots of Pol II occupancy are shown at the bottom. Corresponding AFF1 and AFF4 occupancy (rpm) in the vehicle-treated condition is shown. […] The pausing index is calculated based on the ratio of Pol II occupancy around the TSS to Pol II occupancy in the gene body. […]
Chromatin Immunoprecipitation Sequencing. […] ChIP-seq reads were aligned to the Drosophila genome (UCSC dm3) or human genome (UCSC hgl9). Alignments were processed with Bowtie version 1.1.2, allowing only uniquely mapping reads with up to two mismatches within the 50 bp read. The resulting reads were extended to 150 bp toward the interior of the sequenced fragment and normalized to total reads aligned (reads per million, r.p.m.). […] P-values were calculated with a two-sided Kolmogorov-Smirnov test. […]

With `COc1cccc(C(=O)CC(=O)C(=O)Nc2cc(Cl)ccc2C)c1` [KL-1, N-(5-chloro-2-methylphenyl)-4-oxo-4-(3-methoxyphenyl)-2-oxobutanamide] the “promoter-proximal pausing (pausing index, ECDF)” value was “could increase promoter-proximal pausing” and the “Pol II occupancy at promoter-proximal regions” value (20 μM, 6 hr, HSPA8 and SRSF4 loci) was “increased Pol II occupancy at the promoter-proximal regions”.
